Data reported in US20260166113A1, “COMPOSITIONS AND METHODS FOR TREATING RENAL CANCER” (The Regents of the University of Michigan, priority 2022, published 2026).
“Also recorded” adds a separate entry of the source. Each block holds one compound with its values, some of them ahead of it.

How the values were obtained:
[1] = system: metastatic papillary RCC cell line ACHN1; assay: Cell viability by CellTiter-Glo assay; type: cell-based; conditions: 120 hrs incubation; for effect on cell viability: FIG. 23D
Procedure: (§1) The cell viability was determined by CellTiter-Glo assays (Promega). Cells were seeded in 96-well plates (3000 cells per well) in respective culture medium. After 24 hrs incubation, a serial dilution of compounds was added into plates with six replications for each dose. After 120 hrs incubation, the CellTiter-Glo assays were performed based on the manufacturer's instruction to analyze cell proliferation rates. The bioluminescence signal was acquired by the Infinite M1000 Pro plate reader (Tecan). The data were analyzed by GraphPad Prism software (GraphPad Software).

[2] = system: 5 RCC cell lines (786-0, 769-P, A-498, Caki-1, Caki-2); assay: Kinase inhibition, DIA-MS phosphoproteome of treated RCC cell lines; type: cell-based; conditions: treated at calculated IC50 for 1.5 hours; for phosphorylation of signaling-related downstream substrates: DIA-MS
Procedure: For in vitro experiments assessing the impact of select kinase inhibition on renal cancer cell models (786-0, 769-P, A-498, Caki-1, and Caki-2), the kinase inhibitors, Adaversotib, Everolimus, Sapanisterib, Gefitinib, and Trametinib were dissolved in dimethyl sulfoxide (DMSO) and subjected to sonication in a water bath at room temperature. Following an assessment of individual cell line growth rates to enable calculation of half maximal inhibitory concentration (IC50), cells were seeded in triplicate at concentrations of either 1,000 cells/well (786-0, 769-P, A-498, Caki-2) or 10,000 cells/well (Caki-1). Post-24 hour seeding, cells were subjected to kinase inhibitors at final concentrations of 1 nm, 10 nM, 50 nM, 100 nM, 500 nM, […], with non-treated cells and DMSO treated cells included as controls. Cell growth was measured on day 1 (kinase inhibitor treatment), day 4, and day 6 using the colorimetric CellTiter 96® Aqueous One Cell Proliferation Solution Assay (MTS) following the manufacturer's instructions. IC50 for each cell line in response to single kinase inhibitor exposure was determined by plotting inhibitor concentration against percent activity relative to DMSO-treated controls and calculating the x-intercept of the linear logarithmic trend line. For phosphoproteomic characterization of renal cell models treated with individual kinase inhibitors, six treatment conditions were devised—control, Adaversotib treatment, Everolimus treatment, Sapanisterib treatment, Gefitinib treatment, and Trametinib treatment—and cells were seeded at ˜5E6 cells/15 cm plate and allowed to reach ˜80% confluency. 30 minutes prior to kinase inhibitor treatment, fresh media was exchanged. Cells were then treated with kinase inhibitors at calculated IC50 values for 1.5 hours. Media was removed and cells were three times with a volume of ice-cold PBS. Cells were scraped using 1.5 mL of ice-cold PBS, transferred to Eppendorf tubes, and spun at 3,000×g for 5 minutes at 4° C. A volume of lysis buffer (8 M urea, 75 mM NaCl, 50 mM Tris, pH 8.0, 1 mM EDTA, […] aprotinin, […] leupeptin, 1 mM PMSF, 10 mM NaF, Phosphatase Inhibitor Cocktail 2 and Phosphatase Inhibitor Cocktail 3 [1:100 dilution], and 20 mM PUGNAc) was added and cells lysed. Subsequent sample preparation and ESI-LC-MS/MS analysis for global proteomic and phosphoproteomic characterization for DIA analysis were performed as described for tissue samples.
Analysis of the DIA data from the kinase inhibitor study (whole proteome and phosphopeptide enriched data) was performed as described above. For each data type, the libraries were built from the corresponding 30 DIA runs (6 treatments x 5 cell lines) supplemented with 8 or 9 fractionated DDA files for whole proteome and phosphopeptide-enriched samples, respectively. The resulting whole proteome spectral library contained 8882 proteins and 173932 precursors; the phosphopeptide enriched sample library contained 7841 proteins and 101491 precursors (including non-phosphorylated proteins and peptides). After DIA-NN quantification, the final quantification table for the phosphopeptide-enriched dataset contained quantification information for 46577 phosphorylated peptides forms, representing 22161 peptide sequences from 5154 proteins. The whole proteome dataset table contained quantification for 7654 genes.

metastatic RCC = conditions: everolimus versus sunitinib; literature ref 85; cited from earlier work
[3] = system: normal kidney HK-2 cell line; assay: In vitro drug treatment and growth inhibition assessment (AlamarBlue cell viability); type: cell-based; conditions: HK-2 normal kidney control; 1, 5, 25 μM; treatment 7 days
Procedure: (§2) The ccRCC cell line Caki-1 and a control cell line HK-2 were maintained in Dulbecco's Modified Eagle Medium/Nutrient Mixture F-12 (DMEM/F-12) culture medium (Gibco-11320033) supplemented with 10% FBS (Sigma, F-9665) and 1% Pen Strep (Gibco, 10,000 U/mL-15140122). All cell lines were seeded at 50,000 cells/well in duplicates in 24-well plates at day 0 and were treated with either UCHL1 inhibitor (CAS 668467-91-2-Calbiochem, Sigma Aldrich-662086-10 MG) or GLUL inhibitor (L-Methionine sulfoximine, Sigma Aldrich-M5379-500 MG) upon reaching 50-60% confluency at day 3 in culture. For both UCH-L1inhibitor or GLUL inhibitor treatment, the working concentrations were used at 1 μM, 5 μM, and 25 μM. Treatment was maintained in culture for a total of 7 days and growth inhibition assessment was performed using AlamarBlueTM Cell Viability Reagent (Invitrogen-DAL1025) at a ratio of 1:10 for 4 hours according to the manufacturer's protocol. Plots and IC50 concentrations were produced in Prism GraphPad (version 9.2.0) by plotting the percent growth inhibition on the y-axis and the Log (concentration) on the x-axis. The corresponding IC50 was extracted from the nonlinear regression curve fitting analysis using Prism GraphPad. Cells treated with only a growth medium without any drugs were used as negative controls.

skrc42.EV = conditions: FIG. 21G
Procedure: as §2

ccRCC cell line Caki-1 = assay: In vitro drug treatment and growth inhibition assessment (AlamarBlue cell viability); type: cell-based; conditions: 1, 5, 25 μM, treatment 7 days, FIG. 18J
Procedure: as §2

786-O renal cancer cells [4] = assay: CellTiter-Glo Luminescent Cell Viability Assay; type: cell-based; conditions: increasing concentrations for a week, FIG. 18J
Procedure: (§3) 786-O cells were maintained in Gibco RPMI-1640 supplemented with 10% FBS. CAS 668467-91-2 (UCHL-1 inhibitor) was purchased from Sigma-Aldrich (L4170) and its impact on cell viability was evaluated. Briefly, 2000 cells were seeded on white flat bottom 96 well plates and were treated with increasing concentrations of the inhibitor for a week. CellTiter-Glo Luminescent Cell Viability Assay (Promega) was used to assess cell viability and IC-50 was calculated using a graph pad. Impact of UCHL-1 inhibitor on cell morphology was evaluated using IncuCyte ZOOM assay. For western blot analysis, cell lysates were harvested from control and UCHL-1 treated 786-O cells. Following protein quantification, lysates were resolved in NuPAGE Bis-Tris Protein Gel (ThermoFisher Scientific), transferred on to nitrocellulose membranes, blocked with 5% milk, and incubated overnight with UCHL-1 antibody (HPA005993, Sigma-Aldrich). Following day, membranes were washed with TBST buffer, incubated with HRP-conjugated secondary antibodies, washed, and imaged using Odyssey Fc imager (LiCOR Biosciences).

786-O renal cancer cells [5] = assay: Cell morphology by IncuCyte ZOOM assay; type: cell-based; conditions: 30 μM, 24 hr, FIG. 18K
Procedure: as §3

[6] = system: Akt signaling pathway in 786-O cells; assay: Western blot analysis of Akt signaling; type: cell-based; conditions: FIG. 18L
Procedure: as §3

[7] = system: neuroblastoma cell line NB1 (NB-1); assay: Cell viability by CellTiter-Glo assay; type: cell-based
Procedure: as §1

Structure (SMILES): C#CCN(C)Cc1ccccc1 [pargyline]
effect on cell viability [1]: no effect on cell viability; also recorded: did not affect

Structure (SMILES): CO[C@H]1C[C@@H]2CC[C@@H](C)[C@@](O)(O2)C(=O)C(=O)N2CCCC[C@H]2C(=O)O[C@H]([C@H](C)C[C@@H]2CC[C@@H](OCCO)[C@H](OC)C2)CC(=O)[C@H](C)/C=C(\C)[C@@H](O)[C@@H](OC)C(=O)[C@H](C)C[C@H](C)/C=C/C=C/C=C/1C [everolimus]
phosphorylation of signaling-related downstream substrates [2]: minimal impact
therapeutic value / response in metastatic RCC (metastatic RCC): relatively poor response

Structure (SMILES): CC(C)n1nc(-c2ccc3oc(N)nc3c2)c2c(N)ncnc21 [TAK-228]
response among the five kinase inhibitors (phosphorylation of downstream targeted substrates) [2]: showed better responses
phosphorylation of signaling-related downstream substrates [2]: reduced phosphorylation of the mTOR complex component, AKT1S1, and its downstream phospho-substrate target, EIF4EBP1

Structure (SMILES): CS(=N)(=O)CC[C@H](N)C(=O)O (stereo partly drawn) [L-Methionine sulfoximine]
sensitivity of cell viability to treatment [3]: not sensitive to the treatment
response of cell viability to anti-GLUL treatment (skrc42.EV): responded to the anti-GLUL treatment

IC50 ([1]; FIG. 23D middle): 650 nM
IC50 ([7]; neuroblastoma cell line NB1): 1600 nM
Structure (SMILES): CC(=O)ON=C1C(=O)N(Cc2cc(Cl)ccc2Cl)c2ccc(Cl)cc21 [CAS 668467-91-2]
inhibition of cell viability (ccRCC cell line Caki-1): dose-dependent inhibition of cell viability
sensitivity of cell viability to treatment [3]: resistant to the treatment
inhibition of cell viability (786-O renal cancer cells [4]): dose-dependent inhibition of cell viability
cell morphology (786-O renal cancer cells [5]): altered morphology being elongated and stressed
activation of the Akt signaling pathway [6]: suppressed activation of the Akt signaling pathway in a dose-dependent manner
effect on cell viability ([1]; listed as UCHL1 inhibitor): dramatic effects; also recorded: dramatic decrease in cell viability
effect on cell viability ([7]; NB-1, FIG. 23D right): dramatic effects

Structure (SMILES): C=CCn1c(=O)c2cnc(Nc3ccc(N4CCN(C)CC4)cc3)nc2n1-c1cccc(C(C)(C)O)n1 [AZD-1775]
response among the five kinase inhibitors (phosphorylation of downstream targeted substrates) [2]: showed better responses
phosphorylation of signaling-related downstream substrates [2]: reduced CDK1 phosphorylation levels in all five cell lines

Structure (SMILES): COc1cc2ncnc(Nc3ccc(F)c(Cl)c3)c2cc1OCCCN1CCOCC1 [gefitinib]
phosphorylation of signaling-related downstream substrates [2]: minimal impact
